This assay relates to Tpm3.1-containing actin filaments in SK-N-SH neuroblastoma cells. As to the kind of experiment: Disruption of Tpm3.1-containing actin filaments (γ9d staining). Format: cell-based. Conditions: SK-N-SH cells, 0, 5 and 7.5 μM, 48 hours post treatment. The protocol:
FIG. 2: Imaging and quantitation of Tpm3.1-containing actin filaments in SK-N-SH neuroblastoma cells treated with compound (A) 1007, (B) 1013 and (C) 1016. Cells were stained with γ9d (sheep polycolonal, 1:100) followed by 488-conjugated secondary (1:1000) and DAPI to visualize the Tpm3.1 containing filament bundles and the nucleus, respectively. Shown in the top panel is a representative gray scale immunofluorescent image from control (vehicle alone), 5 μM and 7.5 μM treated cells. […] The coloured lines indicate the detected Tpm3.1 containing actin filaments. Also shown is the quantitation of cell number, Tpm3.1 filament number/cell and Tpm3.1 filament number/cell area (μM^2). Statistical analysis was performed using a one way ANNOVA-multiple comparison where each drug treated group was compared to the control. ****p<0.0001.
Another assay was conducted to assess the ability of compounds 1007, 1013 and 1016 to specifically disrupt actin filaments containing Tpm3.1 (FIG. 2). Briefly, SK-N-SH neuroblastoma cells were seeded at 2×10^4 cells/mL in a 10 cm tissue culture plate and left to plate down 24 hours prior to treatment. Cells were then treated with 0, 5 and 7.5 μM of the test compounds. 48 hours post treatment, cells were fixed with 4% w/v paraformaldehyde (PBS), permeabilized with Triton-X-100 and stained with γ9d (sheep polycolonal, 1:100) followed by 488-conjugated secondary (1:1000) and DAPI to visualize the Tpm3.1 containing filament bundles and the nucleus, respectively. Single plane images were obtained on the Zeiss epifluorescent Axioscope microscope using a 20× objective. Six fields of view per condition were imaged. Images were then exported and the linear features (actin filaments containing Tpm3.1) were then quantitated using the linear feature detection algorithm described above.

Take `CCN(CC)CCCn1c2ccccc2c2cc(C(=O)N3CCN(CCc4ccc(F)cc4)CC3)ccc21` [Compound 1007, (9-(3-(diethylamino)propyl)-9H-carbazol-3-yl)(4-(4-fluorophenethyl)piperazin-1-yl)methanone]: the “disruption of Tpm3.1-containing actin filaments” value is “disrupt Tpm3.1-containing actin filaments in a dose-dependent manner”.

The values above are taken from patent US20170158636A1, “FUNCTIONALISED AND SUBSTITUTED CARBAZOLES AS ANTI-CANCER AGENTS” (Novogen Ltd., priority 2014, published 2017).
